According to patent US9585871B2, “Method for treating and curing leishmaniosis using fexinidazole” (Merial Limited, priority 2013, dated 2017):
Several values for one entry are separate records, joined by “and”; a condition that tells them apart may be missing. Equal entries are not always repeated.

Assays:
Type in all cases: in vivo
L. infantum [1] = experiment: Clinical study in dogs infected with L. infantum: Clinical Score; set-up: key: additive score of clinical signs (body condition, lymphadenopathy, etc.); conditions: Glucantime 100 mg/kg dNMA SC or Fexinidazole 60 mg/kg PO once daily Days 0-27
Protocol: (§1) In a clinical study, dogs infected with L. infantum were treated with meglumine antimoniate (GLUCANTIME®, Merial) as a positive control, or FEX (Table 5). Eight blocks of two animals were formed based antibody titers and biological scores. Six dogs in each group were naturally infected by housing them in an endemic area for two years and two dogs in each group were artificially infected by intravenous administration of a known quantity of parasites recovered from the spleen of an infected dog.
(§2) The first group (FEX) was compared to the second group, which was treated with 27 mg/kg GLUCANTIME (meglumine antimoniate, or 100 mg/kg of dNMA) “GLU”), over 28 days.
(§3) Variables. The Clinical Score is an additive score of various clinical signs (body condition, lymphadenopathy, splenomegaly, appetite, behavior, mucous membrane color, dermatopathology, ocular signs, digestive signs, arthropathy) evaluated before treatment and on Days 7, 14, 21, 28, 57, 184, 219, 254, 282, 310, 345, 400 and 436. The Overall Biological Score is an additive score based on the severity of changes in hematology/chemistry values (creatinine, urine protein/creatinine, Hct, globulin, ALAT), evaluated pretreatment and on Days 28, 57, and 181. The L. infantum immunofluorescent antibody titers (IFAT) were determined from samples collected before treatment and on Days 28, 57, and 181. Finally, quantitative PCR (qPCR) for L. infantum was conducted on spleen aspirates collected before treatment and on Days 28, 57, 142, 184, and 373.

L. infantum [2] = experiment: Clinical study in dogs infected with L. infantum: Overall Biological Score; set-up: key: additive score of severity of hematology/chemistry changes; conditions: Glucantime 100 mg/kg dNMA SC or Fexinidazole 60 mg/kg PO once daily Days 0-27
Protocol: as §1, §2, §3

L. infantum [3] = experiment: Clinical study in dogs infected with L. infantum: qPCR on spleen aspirates; conditions: spleen aspirate, Glucantime 100 mg/kg dNMA SC or Fexinidazole 60 mg/kg PO once daily Days 0-27
Protocol: as §1, §2, §3

L. infantum [4] = experiment: Clinical study in dogs infected with L. infantum: overall outcome (cure, relapse, removal of animals)
Protocol: as §1
The first group (FEX) was compared to the second group, which was treated with 27 mg/kg GLUCANTIME (meglumine antimoniate, or 100 mg/kg of dNMA) “GLU”), over 28 days. […]

[5] = Day −7 (before treatment), individual dogs

meglumine antimoniate [Glucantime] was tested, and the “Clinical Score, group average” value (L. infantum [1]; Day 7) was 1.3, the “Clinical Score, group average” value (L. infantum [1]; Day 14) was 1.1 and the “Clinical Score, group average” value (L. infantum [1]; Day 21) was 2.1. The “Clinical Score” value (L. infantum [1]; Day 28, individual dogs) was 0, the “Clinical Score, group average” value (L. infantum [1]; Day 28, Group 1 includes D21 data of Block 3 dog carried forward) was 1.33 and the “Clinical Score” value (L. infantum [1]; Day 57, individual dogs) was 0. The “Clinical Score, group average” value (L. infantum [1]; Day 57, Group 1 includes D21 data of Block 3 dog carried forward) was 1.33, the “Clinical Score” value (L. infantum [1]; Day 184, individual dogs) was 0 and the “Clinical Score, group average” value (L. infantum [1]; Day 184) was 0.0. The “Clinical Score” value (L. infantum [1]; Day 219, individual dogs) was 0, the “Clinical Score, group average” value (L. infantum [1]; Day 219) was 0.0 and the “Clinical Score” value (L. infantum [1]; Day 254, individual dogs) was 3 and 0 (2×). For the same substance, the “Clinical Score, group average” value (L. infantum [1]; Day 254) was 1.0, the “Clinical Score” value (L. infantum [1]; Day 282, individual dogs) was 3 and 0 (2×) and the “Clinical Score, group average” value (L. infantum [1]; Day 282) was 1.0. For the same substance, the “Clinical Score” value (L. infantum [1]; Day 310, individual dogs) was 2 and 0 (2×), the “Clinical Score, group average” value (L. infantum [1]; Day 310) was 0.7 and the “Clinical Score” value (L. infantum [1]; Day 345, individual dogs) was 0. The “Clinical Score, group average” value (L. infantum [1]; Day 345) was 0.0, the “Clinical Score” value (L. infantum [1]; Day 400, individual dogs) was 1 and 0 (2×) and the “Clinical Score, group average” value (L. infantum [1]; Day 400) was 0.3. For the same substance, the “Clinical Score” value (L. infantum [1]; Day 436, individual dogs) was 4 and 0 (2×), the “Clinical Score, group average” value (L. infantum [1]; Day 436) was 1.3 and the “Clinical Score” value (L. infantum [1]; [5]) was 2 (3×) and 0 (4×) and 3. The “Clinical Score, group average” value (L. infantum [1]; Day −7 (before treatment)) was 1.1, the “Overall Biological Score” value (L. infantum [2]; Day 28, individual dogs) was 2 (2×) and 1 and 4 and 3 (2×) and 2^1 and the “Overall Biological Score, group average” value (L. infantum [2]; Day 28) was 2.4. The “Overall Biological Score” value (L. infantum [2]; Day 57, individual dogs) was 1 (4×) and 4 (2×), the “Overall Biological Score, group average” value (L. infantum [2]; Day 57, Group 1 includes D28 data of Block 3 dog carried forward) was 2.0^3 and the “Overall Biological Score” value (L. infantum [2]; Day 181, individual dogs) was 3 (2×) and 2 (2×) and 0 and 6. For the same substance, the “Overall Biological Score, group average” value (L. infantum [2]; Day 181, Group 1 includes D28 data of Block 3 dog carried forward) was 2.7, the “Overall Biological Score” value (L. infantum [2]; Day −14 (pretreatment), individual dogs) was 6 and 1 (2×) and 3 (2×) and 7 and 2 (2×) and the “Overall Biological Score, group average” value (L. infantum [2]; Day −14 (pretreatment)) was 3.1. The “qPCR for L. infantum” value (L. infantum [3]; Day 28, individual dogs) was 4.04 log copies/mL and 3.73 log copies/mL and 5.93 log copies/mL and 5.63^3 log copies/mL and BLOQ^1 (BLOQ = Below Level of Quantification = < log 3.64 copies/mL spleen aspirate) and 5.77 log copies/mL and 6.40^2 log copies/mL and 5.81 log copies/mL, the “qPCR for L. infantum” value (L. infantum [3]; Day 57, individual dogs) was “BLOQ (BLOQ = Below Level of Quantification = < log 3.64 copies/mL spleen aspirate) (3×) and 4.93 log copies/mL and 5.14 log copies/mL and 4.78 log copies/mL” and the “qPCR for L. infantum” value (L. infantum [3]; Day 142, individual dogs) was “BLOQ (BLOQ = Below Level of Quantification = < log 3.64 copies/mL spleen aspirate) (3×) and 4.73 log copies/mL and 5.57 log copies/mL and 3.94 log copies/mL”. The “qPCR for L. infantum” value (L. infantum [3]; Day 184, individual dogs) was “BLOQ (BLOQ = Below Level of Quantification = < log 3.64 copies/mL spleen aspirate) (2×) and 3.97 log copies/mL and 5.53 log copies/mL and 7.01 log copies/mL and 5.62 log copies/mL”, the “qPCR for L. infantum” value (L. infantum [3]; Day 373, individual dogs) was “BLOQ (BLOQ = Below Level of Quantification = < log 3.64 copies/mL spleen aspirate) and 5.23 log copies/mL and 3.83 log copies/mL” and the “qPCR for L. infantum” value (L. infantum [3]; [5]) was 5.81 log copies/mL and 4.38 log copies/mL and 6.40 log copies/mL and 5.10 log copies/mL and 5.12 log copies/mL and 6.87 log copies/mL and 6.17 log copies/mL and 6.70 log copies/mL. For the same substance, the “removal of animal due to deterioration” value (L. infantum [4]; Group 1 Block 3 dog, Glucantime 100 mg/kg dNMA SC once daily Days 0-27) was “^1Dog Group 1 Block 3 removed on Day 28 due to continued deterioration”, the “removal of animal due to toxicity” value (L. infantum [4]; Group 1 Block 8 dog, Glucantime 100 mg/kg dNMA SC once daily) was “^2Dog Group 1 Block 8 removed on Day 20 due to GLUCANTIME toxicity” and the “removal of animals due to lack of efficacy” value (L. infantum [4]; Group 1 Blocks 2, 4, 7 dogs, Glucantime 100 mg/kg dNMA SC once daily Days 0-27) was “^3Dogs Group 1 Blocks 2, 4, 7 removed after Day 184 due to lack of GLUCANTIME efficacy”.
